Measured values published in patent US20110045101A1, “FUNGICIDAL SUBSTITUTED AZOLES” (E.I. Du Pont De Nemours and Company, priority 2009, published 2011).
Marks after values point to notes of the source that are not given here.

Experiments:
Type in all cases: in vivo
Septoria nodorum = assay: Test F: wheat glume blotch on wheat seedlings, sprayed the day before inoculation, visual disease rating; settings: 100 = 100% disease control; for pest or weed control at 200 ppm: Parastagonospora nodorum, 264 h
In short: (§1)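 Spray suspension: acetone 3% of final volume, then 50/50 acetone/water plus 250 ppm Trem® 014. Applied to run-off on seedlings at 200 ppm (≈500 g/ha); starred entries tested at 40 ppm.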

[1] = system: Erysiphe graminis f. sp. tritici; assay: Test J: wheat powdery mildew on wheat seedlings, sprayed the day before inoculation, visual disease rating; settings: 100 = 100% disease control; for pest or weed control at 200 ppm: Blumeria graminis, 168 h
In short: as §1

Botrytis cinerea = assay: Test C: tomato Botrytis on tomato seedlings, sprayed the day before inoculation, visual disease rating; settings: 100 = 100% disease control; for pest or weed control at 200 ppm: Botrytis cinerea, 120 h
In short: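 Spray to run-off on tomato seedlings; test conc. 200 ppm (≈500 g/ha), some entries 40 ppm. Formulation: acetone 3% of final vol., then acetone/water 50:50 + 250 ppm polyhydric alcohol ester surfactant.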

[2] = system: Puccinia recondita f. sp. tritici; assay: Test I: wheat leaf rust on wheat seedlings, sprayed the day before inoculation, visual disease rating; settings: 100 = 100% disease control; for pest or weed control at 200 ppm: Puccinia recondita, 168 h
In short: as §1

Septoria tritici = assay: Test G: wheat leaf blotch on wheat seedlings, sprayed the day before inoculation, visual disease rating; settings: 100 = 100% disease control; for pest or weed control at 200 ppm: Zymoseptoria tritici, 504 h
In short: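 Seedlings receive a protective spray of test suspension in acetone/water carrying 250 ppm surfactant, mostly at 200 ppm and at 40 ppm where marked. They are inoculated the next day, kept saturated at 24° C for 48 h, then held at 20° C for 19 days before visual scoring.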

Alternaria solani = assay: Test D: tomato early blight, sprayed the day before inoculation, visual disease rating; settings: 100 = 100% disease control; for pest or weed control at 200 ppm: Alternaria solani, 168 h
In short: as §1

[3] = 200 ppm, 0 = no control relative to controls

| Structure (SMILES) | Test F disease control rating (Septoria nodorum; 200 ppm, 0 = no control) | Test J disease control rating ([1]; 200 ppm, 0 = no control) | Test C disease control rating (Botrytis cinerea; 200 ppm, 0 = no control) | Test I disease control rating ([2]; 200 ppm, 0 = no control) | Test G disease control rating (Septoria tritici; 200 ppm, 0 = no control) | Test D disease control rating (Alternaria solani; 200 ppm, 0 = no control) | Test J disease control rating [1, 3] | Test C disease control rating (Botrytis cinerea; [3]) | Test I disease control rating [2, 3] | Test G disease control rating (Septoria tritici; [3]) | Test D disease control rating (Alternaria solani; [3]) | also measured |
| --- | --- | --- | --- | --- | --- | --- | --- | --- | --- | --- | --- | --- |
| Fc1ccc(-n2c(Br)nc(Cl)c2-c2c(F)cccc2F)cc1F [compound 169] | 40% | 99% | 99% | 88% | 96% | 100% |  |  |  |  |  |  |
| Fc1ccc(-n2cnc(Cl)c2-c2c(F)ccc(F)c2Cl)cc1 [compound 176] | 0% | 99% | 96% | 99% | 87% | 91% |  |  |  |  |  |  |
| Cc1ccc(-n2c(Cl)nc(Cl)c2-c2c(F)ccc(F)c2Cl)cc1 [compound 198] | 0% | 95% | 98% | 100% | 90% | 99% |  |  |  |  |  |  |
| Cc1nn(C)c(-c2c(F)cccc2F)c1-c1cccc(F)c1 [Compound 60, 5-(2,6-difluorophenyl)-4-(3-fluorophenyl)-1,3-dimethyl-1H-pyrazole] |  |  |  |  |  |  |  |  |  |  |  | pest or weed control at 200 ppm (Septoria nodorum; [3]): 0%; pest or weed control at 200 ppm [1, 3]: 0%; pest or weed control at 200 ppm (Botrytis cinerea; [3]): 81%; pest or weed control at 200 ppm [2, 3]: 0%; pest or weed control at 200 ppm (Septoria tritici; [3]): 2%; pest or weed control at 200 ppm (Alternaria solani; [3]): 0% |
| Fc1cccc(Cl)c1-c1c(Cl)nc(Br)n1-c1ccc(Cl)cc1 [compound 52] |  |  |  |  |  |  | 100% | 84% | 99% | 97% | 100% | Test F disease control rating (Septoria nodorum; [3]): 0% |
| Fc1cc(F)cc(-n2c(Br)nc(Cl)c2-c2c(F)cccc2F)c1 [compound 54] |  |  |  |  |  |  | 91% | 92% | 99% | 87% | 24% | Test F disease control rating (Septoria nodorum; [3]): 0% |
| COc1cc(F)c(-c2c(Cl)nc(C)n2-c2cccc(F)c2)c(F)c1 [Compound 280, 4-chloro-5-(2,6-difluoro-4-methoxyphenyl)-1-(3-fluorophenyl)-2-methyl-1H-imidazole] |  |  |  |  |  |  |  |  |  |  |  | pest or weed control at 200 ppm (Septoria nodorum; 200 ppm, 0 = no control): 100%; pest or weed control at 200 ppm ([1]; 200 ppm, 0 = no control): 100%; pest or weed control at 200 ppm (Botrytis cinerea; 200 ppm, 0 = no control): 100%; pest or weed control at 200 ppm ([2]; 200 ppm, 0 = no control): 100%; pest or weed control at 200 ppm (Septoria tritici; 200 ppm, 0 = no control): 95%; pest or weed control at 200 ppm (Alternaria solani; 200 ppm, 0 = no control): 100% |
| COc1cc(F)c(-c2c(Br)nc(C)n2-c2ccc(Cl)cc2)c(F)c1C [compound 59] |  |  |  |  |  |  |  |  |  |  |  | Test F disease control rating (Septoria nodorum; 40 ppm (marked *)): 82* %; Test J disease control rating ([1]; 40 ppm (marked *)): 97* %; Test C disease control rating (Botrytis cinerea; 40 ppm (marked *)): 93* %; Test I disease control rating ([2]; 40 ppm (marked *)): 86* %; Test G disease control rating (Septoria tritici; 40 ppm (marked *)): 97* %; Test D disease control rating (Alternaria solani; 40 ppm (marked *)): 100* % |
| Fc1ccc(F)c(-c2c(Cl)ncn2-c2ccc(Cl)cc2)c1Cl [compound 74] |  |  |  |  |  |  | 99% | 98% | 99% | 98% | 96% | Test F disease control rating (Septoria nodorum; [3]): 31% |
| COc1cc(F)c(-c2c(Cl)nc(Cl)n2-c2cccc(Cl)c2)c(F)c1 [compound 453] |  |  |  |  |  |  | 100% | 99% | 100% | 93% | 100% | Test F disease control rating (Septoria nodorum; 40 ppm (marked *)): 90* % |
| Cn1nc(Br)c(-c2c(F)cc(F)cc2F)c1-c1ccc(Cl)cc1 [compound 166] | 40% | 100% | 96% | 91% | 96% | 97% |  |  |  |  |  |  |
| CCc1ccc(-n2c(Br)nc(Cl)c2-c2c(F)ccc(OC)c2F)cc1 [compound 441] |  |  |  |  |  |  | 99% | 97% | 97% | 97% | 99% | Test F disease control rating (Septoria nodorum; [3]): 0% |
| Fc1ccc(-n2c(Br)nc(Cl)c2-c2ccc(F)cc2Cl)cc1 [compound 182] | 73% | 99% | 99% | 97% | 96% | 100% |  |  |  |  |  |  |
| COc1cc(F)c(-c2c(C)nc(C)n2-c2ccc(Cl)c(F)c2)c(F)c1 [compound 44] |  |  |  |  |  |  |  |  |  |  |  | Test F disease control rating (Septoria nodorum; 40 ppm (marked *)): 40* %; Test J disease control rating ([1]; 40 ppm (marked *)): 98* %; Test C disease control rating (Botrytis cinerea; 40 ppm (marked *)): 99* %; Test I disease control rating ([2]; 40 ppm (marked *)): 99* %; Test G disease control rating (Septoria tritici; 40 ppm (marked *)): 92* %; Test D disease control rating (Alternaria solani; 40 ppm (marked *)): 100* % |
| Cc1nc(Cl)n(-c2ccc(Cl)c(F)c2)c1-c1c(Cl)cncc1Cl [compound 262] | 69% | 100% | 99% | 100% | 96% | 99% |  |  |  |  |  |  |
| COc1cc(F)c(-c2c(C)nc(Cl)n2-c2ccc(Cl)c(F)c2)c(F)c1 [compound 261] | 100% | 100% | 99% | 100% | 95% | 100% |  |  |  |  |  |  |
| Cc1nn(C)c(-c2c(Cl)cccc2Cl)c1-c1ccc(Cl)cc1 [compound 87] |  |  |  |  |  |  | 99% | 0% | 27% | 84% | 0% | Test F disease control rating (Septoria nodorum; [3]): 0% |
| Cc1ccc(-n2c(Br)nc(Cl)c2-c2c(F)cccc2Cl)cc1 [compound 186] | 0% | 100% | 98% | 100% | 97% | 88% |  |  |  |  |  |  |
| Fc1cc(-n2c(Br)nc(Cl)c2-c2c(F)cccc2F)ccc1Cl [compound 223] | 60% | 100% | 99% | 99% | 98% | 100% |  |  |  |  |  |  |
| Fc1ccc(-c2c(Cl)nnn2-c2ccc(Cl)cc2)c(F)c1 [Compound 24, 4-chloro-1-(4-chlorophenyl)-5-(2,4-difluorophenyl)-1H-1,2,3-triazole] |  |  |  |  |  |  |  |  |  |  |  | pest or weed control at 200 ppm (Septoria nodorum; [3]): 0%; pest or weed control at 200 ppm [1, 3]: 95%; pest or weed control at 200 ppm (Botrytis cinerea; [3]): 90%; pest or weed control at 200 ppm [2, 3]: 28%; pest or weed control at 200 ppm (Septoria tritici; [3]): 67%; pest or weed control at 200 ppm (Alternaria solani; [3]): 0% |
| Fc1ccc(F)c(-c2c(Cl)nc(Br)n2-c2ccc(Cl)c(Cl)c2)c1F [compound 440] |  |  |  |  |  |  | 99% | 99% | 98% | 95% | 100% | Test F disease control rating (Septoria nodorum; [3]): 98% |
| CC(C)c1nc(Cl)c(-c2c(F)cccc2F)n1-c1ccc(Cl)cc1 [compound 116] |  |  |  |  |  |  |  |  |  |  |  | Test F disease control rating (Septoria nodorum; 40 ppm (marked *)): 0* %; Test J disease control rating ([1]; 40 ppm (marked *)): 0* %; Test C disease control rating (Botrytis cinerea; 40 ppm (marked *)): 0* %; Test I disease control rating ([2]; 40 ppm (marked *)): 0* %; Test G disease control rating (Septoria tritici; 40 ppm (marked *)): 0* %; Test D disease control rating (Alternaria solani; 40 ppm (marked *)): 0* % |
